# In PubChem BioAssay AID296 (DTP/NCI, 2004):
# Inconclusive results are not listed.
# System: MX-1 breast xenograft, nude mice, tumor weight T/C
# Assay: NCI In Vivo Anticancer Drug Screen. Data for tumor model Human Mammary Carcinoma MX-1 Xenograft (intrarenal inoculation) in NU/NU Swiss (nude) mice
# Settings: endpoint: mean tumor weight change, higher = larger tumour
# How it was run: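 Mice carrying the implanted tumor receive either test agent or vehicle. Tumor size or survival is then recorded for both groups. Results are stated as the treated-to-control quotient.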
# [1] = dose: 300.0 mg/kg/injection, schedule: Q04DX003 (sc), vehicle: saline with Tween-80
# [2] = dose: 600.0 mg/kg/injection, schedule: Q04DX003 (sc), vehicle: saline with Tween-80
# [3] = dose: 1200.0 mg/kg/injection, schedule: Q04DX003 (sc), vehicle: saline with Tween-80
# [4] = dose: 2400.0 mg/kg/injection, schedule: Q04DX003 (sc), vehicle: saline with Tween-80
# [5] = dose: 100.0 mg/kg/injection, schedule: Q01DX010 (sc), vehicle: saline with Tween-80
# [6] = dose: 200.0 mg/kg/injection, schedule: Q01DX010 (sc), vehicle: saline with Tween-80
# [7] = dose: 150.0 mg/kg/injection, schedule: Q04DX003 (sc), vehicle: saline with Tween-80
structure (smiles),measurement,setting,value
CCCC(=O)O.CCCC(=O)O.CCCC(=O)O.CCCC(=O)O.[Rh].[Rh],T/C,"dose: 2.0 mg/kg/injection, schedule: Q04DX003 (sc), vehicle: suspension in saline",99 % of control
same,T/C,"dose: 4.0 mg/kg/injection, schedule: Q04DX003 (sc), vehicle: suspension in saline",115 % of control
same,T/C,"dose: 8.0 mg/kg/injection, schedule: Q04DX003 (sc), vehicle: suspension in saline",80 % of control
O=C(NC1CCCCC1)OCc1c(COC(=O)NC2CCCCC2)c(-c2ccc(Cl)c(Cl)c2)n2c1CCC2,T/C,[1],114 % of control
same,T/C,[2],114 % of control
same,T/C,[3],107 % of control
same,T/C,[4],109 % of control
O=c1nc(Oc2ccccc2)nc2ncccn12,T/C,"dose: 25.0 mg/kg/injection, schedule: Q01DX010 (sc), vehicle: saline with Tween-80",100 % of control
same,T/C,"dose: 50.0 mg/kg/injection, schedule: Q01DX010 (sc), vehicle: saline with Tween-80",120 % of control
same,T/C,[5],42 % of control
same,T/C,[6],46 % of control
Nc1nc2ccc(NCc3ccc(C(=O)NC(CCC(=O)O)C(=O)O)cc3)cc2c(=O)[nH]1 (stereo unspecified),T/C,"dose: 100.0 mg/kg/injection, schedule: Q04DX003 (sc), vehicle: saline with Tween-80",93 % of control
same,T/C,"dose: 200.0 mg/kg/injection, schedule: Q04DX003 (sc), vehicle: saline with Tween-80",93 % of control
same,T/C,"dose: 400.0 mg/kg/injection, schedule: Q04DX003 (sc), vehicle: saline with Tween-80",90 % of control
same,T/C,"dose: 800.0 mg/kg/injection, schedule: Q04DX003 (sc), vehicle: saline with Tween-80",23 % of control
CCCCCC1c2cc(O)ccc2OC1N1CCOCC1 (stereo unspecified),T/C,[1],72 % of control
same,T/C,[2],71 % of control
same,T/C,[3],90 % of control
same,T/C,[4],67 % of control
CC(=Nc1ccccc1)C1=C(O)C(Cc2ccccc2)NC1=O (stereo unspecified),T/C,[7],92 % of control
same,T/C,[1],63 % of control
same,T/C,[2],48 % of control
same,T/C,[3],44 % of control
CSC1SCC2C(=O)N(C)C(C(C)C)C(=O)OCC(NC(=O)c3cnc4ccccc4n3)C(=O)NC(C)C(=O)N(C)C1C(=O)N(C)C(C(C)C)C(=O)OCC(NC(=O)c1cnc3ccccc3n1)C(=O)NC(C)C(=O)N2C (stereo unspecified),T/C,"dose: 60.0 micrograms/kg/injection, schedule: Q01DX010 (sc), vehicle: saline",109 % of control
same,T/C,"dose: 120.0 micrograms/kg/injection, schedule: Q01DX010 (sc), vehicle: saline",87 % of control
same,T/C,"dose: 240.0 micrograms/kg/injection, schedule: Q01DX010 (sc), vehicle: saline",40 % of control
CCCCCn1c(C)cc(/C=C\c2ccc3cc(C)ccc3[n+]2C)c1C,T/C,"dose: 0.38 mg/kg/injection, schedule: Q04DX003 (sc), vehicle: Klucel (hydroxypropylcellulose) (HPC)",174 % of control
same,T/C,"dose: 0.75 mg/kg/injection, schedule: Q04DX003 (sc), vehicle: Klucel (hydroxypropylcellulose) (HPC)",62 % of control
same,T/C,"dose: 1.5 mg/kg/injection, schedule: Q04DX003 (sc), vehicle: Klucel (hydroxypropylcellulose) (HPC)",109 % of control
same,T/C,"dose: 3.0 mg/kg/injection, schedule: Q04DX003 (sc), vehicle: Klucel (hydroxypropylcellulose) (HPC)",74 % of control
COC(=O)C(Cl)(Cl)N=Nc1c(Cl)cc(Cl)c(C)c1Cl,T/C,[1],78 % of control
same,T/C,[2],74 % of control
Nc1nc2c(ncn2C2OC(CO)C(O)C2O)c(=O)[nH]1.Nc1nc2c(ncn2C2OC(CO)C(O)C2O)c(=O)[nH]1.[NH2-].[NH2-].[Pt+2] (stereo unspecified),T/C,"dose: 300.0 mg/kg/injection, schedule: Q04DX003 (sc), vehicle: water",68 % of control
same,T/C,"dose: 600.0 mg/kg/injection, schedule: Q04DX003 (sc), vehicle: water",22 % of control
same,T/C,"dose: 1200.0 mg/kg/injection, schedule: Q04DX003 (sc), vehicle: water",3 % of control
COC(=O)Nc1ccc(Cc2ccc(NC(=O)OC)cc2)cc1,T/C,[1],87 % of control
same,T/C,[2],119 % of control
same,T/C,[3],65 % of control
same,T/C,[4],48 % of control
COc1ccc(CC2C(=O)NC(C)C(=O)N(C)C3C(=O)N(C)C(Cc4ccc(O)c(c4)Oc4ccc(cc4)C3O)C(=O)NC(C)C(=O)NC(C)C(=O)N2C)cc1 (stereo unspecified),T/C,"dose: 0.5 mg/kg/injection, schedule: Q01DX010 (sc), vehicle: saline with Tween-80",78 % of control
same,T/C,"dose: 1.0 mg/kg/injection, schedule: Q01DX010 (sc), vehicle: saline with Tween-80",51 % of control
same,T/C,"dose: 2.0 mg/kg/injection, schedule: Q01DX010 (sc), vehicle: saline with Tween-80",34 % of control
Cc1ncc(CNC(=O)N(CCCl)N=O)c(N)n1,T/C,"dose: 9.38 mg/kg/injection, schedule: Q04DX003 (sc), vehicle: saline",43 % of control
same,T/C,"dose: 18.75 mg/kg/injection, schedule: Q04DX003 (sc), vehicle: saline",28 % of control
C=C(NC(=O)C(=C)NC(=O)c1csc(C2=NC3c4csc(n4)C4NC(=O)c5csc(n5)C(C(C)(O)C(C)O)NC(=O)C5CSC(=N5)/C(=C/C)NC(=O)C(C(C)O)NC(=O)c5csc(n5)C3(CC2)NC(=O)C(C)NC(=O)C(=C)NC(=O)C(=C)NC(=O)C(C(C)C)NC2C=Cc3c(C(C)O)cc(nc3C2O)C(=O)OC4C)n1)C(N)=O (stereo unspecified),T/C,"dose: 187.5 mg/kg/injection, schedule: Q04DX003 (sc), vehicle: suspension in saline",123 % of control
same,T/C,"dose: 375.0 mg/kg/injection, schedule: Q04DX003 (sc), vehicle: suspension in saline",98 % of control
same,T/C,"dose: 750.0 mg/kg/injection, schedule: Q04DX003 (sc), vehicle: suspension in saline",105 % of control
same,T/C,"dose: 1500.0 mg/kg/injection, schedule: Q04DX003 (sc), vehicle: suspension in saline",152 % of control
Cc1ccc(S(=O)(=O)OCOS(=O)(=O)c2ccc(C)cc2)cc1,T/C,"dose: 300.0 mg/kg/injection, schedule: Q04DX003 (sc), vehicle: Klucel (hydroxypropylcellulose) (HPC)",89 % of control
same,T/C,"dose: 600.0 mg/kg/injection, schedule: Q04DX003 (sc), vehicle: Klucel (hydroxypropylcellulose) (HPC)",98 % of control
same,T/C,"dose: 1200.0 mg/kg/injection, schedule: Q04DX003 (sc), vehicle: Klucel (hydroxypropylcellulose) (HPC)",85 % of control
same,T/C,"dose: 2400.0 mg/kg/injection, schedule: Q04DX003 (sc), vehicle: Klucel (hydroxypropylcellulose) (HPC)",63 % of control
O=C1OC(=O)[C@H]2[C@@H]1[C@H]1C=C[C@@H]2OC1=O,T/C,"dose: 25.0 mg/kg/injection, schedule: Q04DX003 (sc), vehicle: suspension in saline",83 % of control
same,T/C,"dose: 50.0 mg/kg/injection, schedule: Q04DX003 (sc), vehicle: suspension in saline",101 % of control
same,T/C,"dose: 100.0 mg/kg/injection, schedule: Q04DX003 (sc), vehicle: suspension in saline",89 % of control
same,T/C,"dose: 150.0 mg/kg/injection, schedule: Q04DX003 (sc), vehicle: suspension in saline",91 % of control
same,T/C,"dose: 200.0 mg/kg/injection, schedule: Q04DX003 (sc), vehicle: suspension in saline",90 % of control
same,T/C,"dose: 300.0 mg/kg/injection, schedule: Q04DX003 (sc), vehicle: suspension in saline",109 % of control
same,T/C,"dose: 600.0 mg/kg/injection, schedule: Q04DX003 (sc), vehicle: suspension in saline",89 % of control
CN(C)CCN1C(=O)c2cccc3cc([N+](=O)[O-])cc(c23)C1=O,T/C,"dose: 9.0 mg/kg/injection, schedule: Q04DX003 (sc), vehicle: saline with Tween-80",52 % of control
same,T/C,"dose: 18.0 mg/kg/injection, schedule: Q04DX003 (sc), vehicle: saline with Tween-80",43 % of control
same,T/C,"dose: 36.0 mg/kg/injection, schedule: Q04DX003 (sc), vehicle: saline with Tween-80",55 % of control
CCN(CC)CCC(=O)c1ccccc1,T/C,"dose: 75.0 mg/kg/injection, schedule: Q04DX003 (sc), vehicle: saline with Tween-80",94 % of control
same,T/C,[7],100 % of control
same,T/C,[1],115 % of control
COc1ccc2c(NCCCCCCNc3c4ccccc4nc4cc(OC)ccc34)c3ccccc3nc2c1,T/C,"dose: 1.25 mg/kg/injection, schedule: Q01DX010 (sc), vehicle: lactic acid",81 % of control
same,T/C,"dose: 2.5 mg/kg/injection, schedule: Q01DX010 (sc), vehicle: lactic acid",165 % of control
same,T/C,"dose: 5.0 mg/kg/injection, schedule: Q01DX010 (sc), vehicle: lactic acid",79 % of control
same,T/C,"dose: 10.0 mg/kg/injection, schedule: Q01DX010 (sc), vehicle: lactic acid",92 % of control
Cn1c(=O)[nH]c2nncnc2c1=O,T/C,"dose: 125.0 mg/kg/injection, schedule: Q04DX003 (sc), vehicle: water",92 % of control
COc1ccc2cc1Oc1ccc(cc1)C[C@H]1c3cc(c(OC)cc3CCN1C)Oc1c(OC)c(OC)cc3c1[C@H](C2)N(C)CC3,T/C,[5],115 % of control
same,T/C,[6],42 % of control
same,T/C,"dose: 400.0 mg/kg/injection, schedule: Q01DX010 (sc), vehicle: saline with Tween-80",83 % of control
same,T/C,"dose: 800.0 mg/kg/injection, schedule: Q01DX010 (sc), vehicle: saline with Tween-80",44 % of control
CC(=O)OCC1OC(OC2=C(CC=C(C)C)C(=O)c3ccccc3C2=O)C(OC(C)=O)C(OC(C)=O)C1OC(C)=O (stereo unspecified),T/C,"dose: 400.0 mg/kg/injection, schedule: Q01DX010 (sc), vehicle: Klucel (hydroxypropylcellulose) (HPC)",194 % of control
same,T/C,"dose: 800.0 mg/kg/injection, schedule: Q01DX010 (sc), vehicle: Klucel (hydroxypropylcellulose) (HPC)",52 % of control
